Patent publication US8729034B2, “Pharmaceutical composition having virucidal and spermicidal activity” (priority 2007, dated 2014)

Columns and labels:
[1] = system: Salmonella typhimurium TA100; assay: Bacterial reverse mutation assay (MUTA-CHROMOPLATE kit); settings: Background = 20, Blank = 0
Source text: Ac-B was examined for its ability to produce mutations/revert mutations in a bacterial reverse mutation assay using amino acid-requiring strain of Salmonella typhimurium (S. typhimurium) TA100 and the result was compared with a known mutagen (Na-azide). A commercial kit (The MUTA-CHROMOPLATE) from M/s Environmental Biodetection Products Inc. Ontario, Canada, was used. Suspensions of bacterial cells were exposed to the test substance in the presence and in the absence of an exogenous metabolic activation system. After 5 days of incubation, revertant colonies were detected by the change of colour from blue to yellow on solvent control plates. All yellow, partially yellow or turbid wells were scored as positive, while all purple wells were scored as negative. Number of positive wells for each plate was recorded, their number was counted and compared to that of spontaneous revertant colonies. The “Background” (i.e. no test material added) plate was used as reference for the level of spontaneous or background mutation of the assay organism. The statistical difference was determined using a table provided with the kit.
Score of mutagenicity as per the set criteria of Muta-Chromoplate test kit.

human spermatozoa [2] = assay: Sander & Cramer spermicidal assay (in vitro); format: cell-based; settings: Human spermatozoa (N = 5); weakest concentration immobilizing all spermatozoa within 20 seconds
Experimental: (§1) The exudates/liquefied human semen samples were suspended in BWW medium (pre equilibrated at 37 degree C.). The spermatozoa with forward motility were separated from immotile or sluggishly motile cells by the swim-up technique and were allowed to disperse evenly within a CO2 incubator at 37 degree C. At least five aliquots from each sample was used to prepare the working spermatozoa suspension. The swim up procedure was as follows:
(§2) Pre equilibrated BWW medium (1.25 ml) was gently layered over cauda-exudates or liquefied human semen (1 ml) in a sterile 15 ml conical-based centrifuge tube. The tube was inclined at an angle of 45 degree and incubated for 1 hour at 37 degree C. in a CO2-incubator. It was then gently returned to the upright position and the uppermost 1 ml medium with a turbid appearance was removed. This aliquot of motile cells was pooled from each set, then diluted with same volumes of pre equilibrated BWW medium, centrifuged at 500 g for 5 minutes and finally resuspended in 1 ml pre equilibrated BWW medium to obtain a working suspension. The sperm cells were counted in a Makler chamber (Zygotec Systems, Springfield, M A, USA) and finally a working spermatozoa suspension having concentration of 25 to 30×10^6 cells/ml was prepared.
(§3) For in vitro assay of spermicidal effect, sperms collected from proven male rats and mice, and motile spermatozoa from liquefied human semen were used.
(§4) The assay was done following the Sander & Cramer assay method. Two hundred micro liter (200 microliters) of working spermatozoa suspension was added to 1 ml solution of test material in BWW medium and mixed on a light vortex for 10 seconds. A wet mount was immediately prepared on a clean microscopy glass slide and examined (at ×100) under a phase contrast microscope (Leitz, Biomed). The weakest concentration that immobilized all spermatozoa within 20 seconds of mixing was recorded as MEC. At least five fields were examined for each wet mount preparation. The observation was repeated with five individual spermatozoa suspension for each concentration of test compound solution. For negative control, saponin solutions were replaced by equal volume of BWW medium, while Nonoxynol 9 was used as positive control.

human spermatozoa [3] = settings: cited from earlier work
mouse spermatozoa = assay: Sander & Cramer spermicidal assay (in vitro); format: cell-based; settings: Mouse spermatozoa (N = 10); all immobilized within 20 seconds
Experimental: (§5) Sexually mature male mice and rats were autopsied following euthanasia by an overdose of Ketamin (≧200 mg/kg body weight; injected i.p.) and their cauda epididymis were excised. Working suspension of animal spermatozoa was prepared with the exudates obtained after careful pricking of the cauda epididymis with an injection needle (18 G) and the exudates were collected in a conical centrifuge tube.
as §1, §2, §3, §4

rat spermatozoa = assay: Sander & Cramer spermicidal assay (in vitro); format: cell-based; settings: Rat spermatozoa (N = 10); all immobilized within 20 seconds
Experimental: as §5, §1, §2, §3, §4

[N-]=[N+]=[N-].[Na+] [Na-azide, reference compound]
No. of '+' wells (Muta-Chromoplate score) [1]: 74

isononyl-phenyl-polyoxyethylene (9) ether [Nonoxynol 9, reference compound]
MEC as per Sander and Cramer Test (human spermatozoa [2]): >350 microgram per ml
MEC for N-9 (human spermatozoa [3]; closest prior arts): 200-500 microgram per ml
MEC of N-9 for spermicidal action (human spermatozoa [3]; comparison value in concluding remarks): 200-500 microgram
MEC as per Sander and Cramer Test (mouse spermatozoa): 350 (±10) microgram per ml
MEC as per Sander and Cramer Test (rat spermatozoa): 350 (±10) microgram per ml
